Assay results reported in article PMC9894841, “Characterisation of a cyclic peptide that binds to the RAS binding domain of phosphoinositide 3-kinase p110α” (Scientific Reports, 2023).
“And” between values parts separate entries of the source, which are not always exact repeats. Equal entries are not always repeated. “Also recorded” adds a separate entry of the source. Residues, ends and D or L forms follow the SMILES beside them.

Legend:
[1] = test system: H1792 cells; assay: Western blot of phospho-AKT / phospho-ERK in H1792 cells; format: cell-based, human; settings: 4 h
Experimental: We treated the human lung cancer cell line H1792, growing at steady-state in Roswell Park Memorial Institute (RPMI) 1640 media with 10% Foetal Calf Serum (FCS), with the seven cyclic peptides at three different concentrations (2, 10 and 50 µM) for 4 h. After treatment we measured the effect of the peptides on the phosphorylation levels of AKT (pAKT-Ser473), a key downstream effector of p110α activity. […] In contrast, the phosphorylation levels of ERK (p-ERK), which is a downstream effector of the RAS/RAF/MEK/ERK pathway and is independent of p110α activity, were not affected.
The next day, 1 ml of medium was removed and the cells were treated with different peptide concentrations for 4 h. All peptides were dissolved in 25 mM Tris pH8, 100 mM NaCl and 1 mM TCEP. Cells were then harvested and lysed for SDS-PAGE and western blot analysis. Anti-calnexin antibody was obtained from Abcam. Antibodies directed against phospho-T202/Y204-ERK, ERK, phospho-S473-AKT and AKT were obtained from Cell Signaling. After western blotting, calnexin, AKT and phospho-AKT signals were quantified using ImageJ and statistical tests were done using Prism software.

[2] = Solubility of the peptides (in words); format: physicochemical
[3] = target: p110α (Homo sapiens, UniProt P42336); assay: NMR STD and Water-LOGSY interaction with p110α; format: binding; settings: 1 mM peptide, 8 µM p110α
Experimental: Here we chose Nuclear Magnetic Resonance (NMR) as an orthogonal technique to detect the cyclo-CRVLIR binding to p110α. We applied two commonly used NMR-based techniques that can detect protein/ compound interaction: STD (Saturation transfer difference), and Water-LOGSY (water-ligand observed through gradient spectroscopy)[34],[35].
NMR experiments were performed at 20 °C using a Bruker Avance IIIHD spectrometer operating at 700 MHz. STD experiments employed off-resonance saturation (2 s) at − 40 ppm, and on-resonance at − 1 ppm. Waterlogsy experiments used a mixing time of 1.5 s.

[4] = target: T1, Sm-KRAS/Lg-RBDα (Homo sapiens, UniProt P42336); assay: NanoBiT Biochemical Assay (NBBA) Sm-KRAS/Lg-RBDα; settings: HEK293 cell lysate, 50 µM
T1 construct: Lg-BiT fused to the RBD of either p110α, p110 δ or p110γ; expressed in transfected cells; host or cells: HEK293 (lysate)
From the text: We next sought to determine whether cyclo-CRVLIR binds specifically to p110α or if it can also interact with other PI3K isoforms. We chose the NBBA (NanoBiT Biochemical Assay), which was previously developed by our laboratory, as a tool to detect if cyclo-CRVLIR could inhibit the interaction of RAS with p110α, p110 δ and p110γ[36]. The NBBA is biochemical adaptation of the NanoBiT cellular assay that is based on the split luciferase NanoLuc system that uses separate Large-BiT (Lg-BiT) and Small-BiT (Sm-BiT) components, each fused to a protein of interest. When the Lg-BiT and Sm-BiT proteins are brought into close proximity, upon the binding of their cognate target proteins, they produce a luminescence signal. […] Cells were harvested at 48 h post-transfection and the cell lysates tested for the interaction of Sm-KRAS with each of the PI3K binding isoforms in the presence or absence of 50 µM cyclo-CRVLIR.
The production of the Sm-KRAS, and the Lg-RBD- of p110α, β, δ, γ constructs and lysate are described in detail in a previous report. The cell lysate was treated with 50 µM cyclo-CRVLIR for 20–30 min before detection by the addition of the Nano-Glo.

[5] = target: p110α (p110α/p85α) (Homo sapiens, UniProt P42336); assay: Microscale thermophoresis (MST) binding to labelled p110α/p85α
[6] = test system: H1373 cells; assay: Western blot of phospho-AKT / phospho-ERK in H1373 cells; format: cell-based, human; settings: 4 h
[7] = target: p110α/KRAS interaction (Homo sapiens, UniProt P42336); assay: MST competition assay of the p110α/KRAS interaction; format: binding; settings: 20 µM peptide
Experimental: We next wanted to test whether the cyclo-CRVLIR peptide is capable of inhibiting the p110α/KRAS interaction.
Measurements were performed using a NanoTemper Monolith™ NT.115 instrument (NanoTemper Technologies GmbH, München, Germany). Protein samples were labelled with the amine reactive dye NT-647 (or NT-495) using the Monolith™ NT.115 Protein Labeling Kit RED-NHS (or Monolith™ NT.115 Protein Labeling Kit BLUE-NHS). Labelling levels (generally in the range 0.3–0.4 dye molecules per protein molecule) were determined using calculated extinction coefficients for the protein and ε647 = 250,000 M^−1 cm^−1 (or ε495 = 70,000 M^−1 cm^−1) for the dye concentration. In a typical experiment […] aliquots of a 100 nM stock solution of labelled protein were mixed with […] aliquots of a serial dilution of binding partner. These solutions were then loaded into standard treated capillaries and MST measurements were performed at 25 °C using 20–40% LED power and 40–60% IR-Laser power. The laser Laser-On time was 30 s and Laser-Off time 5 s. All measurements were performed at least five times.

Sequence of p110α/KRAS interaction (P42336 whole entry, species assumed): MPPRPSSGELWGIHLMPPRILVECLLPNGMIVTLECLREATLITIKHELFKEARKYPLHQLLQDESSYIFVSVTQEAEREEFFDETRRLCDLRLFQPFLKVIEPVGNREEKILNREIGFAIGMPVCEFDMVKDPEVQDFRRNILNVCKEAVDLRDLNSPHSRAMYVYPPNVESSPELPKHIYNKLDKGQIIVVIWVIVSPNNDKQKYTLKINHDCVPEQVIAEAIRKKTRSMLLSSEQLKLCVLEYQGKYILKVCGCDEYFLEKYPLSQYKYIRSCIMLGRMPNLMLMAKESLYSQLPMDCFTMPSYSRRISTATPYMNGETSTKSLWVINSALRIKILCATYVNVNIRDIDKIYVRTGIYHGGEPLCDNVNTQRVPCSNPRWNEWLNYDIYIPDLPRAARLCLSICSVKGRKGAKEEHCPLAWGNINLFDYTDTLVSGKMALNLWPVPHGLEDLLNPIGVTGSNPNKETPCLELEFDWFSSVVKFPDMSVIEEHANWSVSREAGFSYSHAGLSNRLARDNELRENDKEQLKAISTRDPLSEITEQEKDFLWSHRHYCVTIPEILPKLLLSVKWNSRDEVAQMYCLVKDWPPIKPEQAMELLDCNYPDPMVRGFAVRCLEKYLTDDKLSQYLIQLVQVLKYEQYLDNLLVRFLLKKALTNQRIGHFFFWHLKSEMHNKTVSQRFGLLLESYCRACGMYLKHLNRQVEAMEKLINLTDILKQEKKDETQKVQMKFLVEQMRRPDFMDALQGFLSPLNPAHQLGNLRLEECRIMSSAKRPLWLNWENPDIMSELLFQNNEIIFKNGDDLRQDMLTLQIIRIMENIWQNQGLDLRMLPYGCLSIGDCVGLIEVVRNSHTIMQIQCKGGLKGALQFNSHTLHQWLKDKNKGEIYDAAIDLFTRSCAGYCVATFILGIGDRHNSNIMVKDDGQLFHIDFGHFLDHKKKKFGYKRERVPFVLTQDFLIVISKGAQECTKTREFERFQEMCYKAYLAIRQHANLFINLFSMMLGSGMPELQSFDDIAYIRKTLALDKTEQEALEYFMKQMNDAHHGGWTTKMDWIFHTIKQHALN
Sequence of p110α/KRAS interaction (P27986 whole entry partner, species assumed): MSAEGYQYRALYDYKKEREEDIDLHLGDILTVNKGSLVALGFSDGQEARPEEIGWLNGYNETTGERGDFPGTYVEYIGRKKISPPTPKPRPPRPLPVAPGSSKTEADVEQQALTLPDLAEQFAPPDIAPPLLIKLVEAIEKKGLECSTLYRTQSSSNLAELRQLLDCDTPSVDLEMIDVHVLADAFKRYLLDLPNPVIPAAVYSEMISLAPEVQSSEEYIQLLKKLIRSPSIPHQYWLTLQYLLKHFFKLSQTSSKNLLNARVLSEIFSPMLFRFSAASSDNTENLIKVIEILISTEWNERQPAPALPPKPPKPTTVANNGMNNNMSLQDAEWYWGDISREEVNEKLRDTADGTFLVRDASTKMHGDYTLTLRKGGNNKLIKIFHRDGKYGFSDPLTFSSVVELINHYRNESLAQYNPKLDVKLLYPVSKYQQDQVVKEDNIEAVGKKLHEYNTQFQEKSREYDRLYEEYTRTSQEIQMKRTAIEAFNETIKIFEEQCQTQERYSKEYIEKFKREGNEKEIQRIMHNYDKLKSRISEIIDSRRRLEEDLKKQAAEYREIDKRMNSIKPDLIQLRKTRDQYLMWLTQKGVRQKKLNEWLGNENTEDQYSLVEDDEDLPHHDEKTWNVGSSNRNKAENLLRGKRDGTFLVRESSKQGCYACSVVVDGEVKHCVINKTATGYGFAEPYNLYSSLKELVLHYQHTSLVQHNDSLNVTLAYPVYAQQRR
Sequence of p110α (p110α/p85α) (P42336 whole entry, species assumed): as the sequence (P42336 whole entry, species assumed) above
Sequence of p110α (p110α/p85α) (P27986 whole entry partner, species assumed): as the sequence (P27986 whole entry partner, species assumed) above
T1 sequence (P42336 187-289 limits assumed): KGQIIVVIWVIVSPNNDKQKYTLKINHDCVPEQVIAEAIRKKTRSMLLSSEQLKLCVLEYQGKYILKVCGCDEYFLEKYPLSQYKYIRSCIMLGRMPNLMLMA
Sequence of p110α (P42336 whole entry, species assumed): as the sequence (P42336 whole entry, species assumed) above
Sequence of p110α (P27986 whole entry partner, species assumed): as the sequence (P27986 whole entry partner, species assumed) above

- interaction with p110α by STD and Water-LOGSY NMR [3]: clear signal of interaction
- increase in affinity for p110α over cyclo-CRVLAA ([5]; MST): ~120 fold
- Kd ([5]; labelled protein 100 nM, 25 °C): 2900 nM and 3000 nM
Compound: CC[C@H](C)[C@@H]1NC(=O)[C@H](CC(C)C)NC(=O)[C@H](C(C)C)NC(=O)[C@H](CCCNC(=N)N)NC(=O)[C@H](CS)NC(=O)[C@H](CCCNC(=N)N)NC1=O [cyclo-CRVLIR, Cyclo-CRVLIR] (cyclo(CRVLIR))
- effect on phosphorylation levels of ERK (p-ERK) [1]: not affected
- effect on phospho-AKT (pAKT-Ser473) levels ([1]; RPMI 1640 10% FCS, 2, 10 and 50 µM (also 4, 20 and 100 µM)): dose dependent effect; also recorded: reduces the levels of pAKT
- solubility in words [2]: more soluble than the parent peptide cyclo-CRVLAA; also recorded: significantly more soluble than our original cyclo-CRVLAA peptide
- inhibition of the Sm-KRAS/Lg-RBDα interaction signal [4]: reduction in the interaction signal; also recorded: able to inhibit
- effect on phospho-AKT (pAKT-S473) levels ([6]; H1373 cells, 4, 20 and 100 µM): inhibition of pAKT; also recorded: reduces the levels of pAKT
- effect on phosphorylation levels of ERK (p-ERK) ([6]; H1373 cells): not affected
- p110α/KRAS interaction in the presence of the peptide [7]: blocked; also recorded: did not detect the p110α/KRAS interaction; also recorded: inhibits the p110α/RAS interaction
